Activity calls are given as the source filed them. The rule behind the calls is not given here.
Test system: rodent carcinogenicity bioassays, tumor incidence
Experiment: CCRIS carcinogenicity studies
Details: Dose: 0, Dose: 0
In short: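 Archive of carcinogenicity, mutagenicity, tumor promotion and tumor inhibition results drawn from journals, NCI reports and other sources, expert-reviewed; covers 1985-2011 and is no longer updated.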

ClC(Cl)C(Cl)Cl
carcinogen call (Species: MOUSE, Strain/Sex: B6C3F1/FEMALE, Route: GAVAGE, 142, 282 MG/KG N CORN OIL 5 D/WK FOR 78 WK (STUDY DURATION: 90 WK), 142, 282 MG/KG N CORN OIL 5 D/WK FOR 78 WK (STUDY DURATION: 90 WK), Tumor Site: Type of Lesion: LIVER: HEPATOCELLULAR CARCINOMA): active; positive | carcinogen call (Species: MOUSE, Strain/Sex: B6C3F1/MALE, Route: GAVAGE, 142, 282 MG/KG IN CORN OIL 5 D/WK FOR 78 WK (STUDY DURATION: 90 WK), 142, 282 MG/KG IN CORN OIL 5 D/WK FOR 78 WK (STUDY DURATION: 90 WK), Tumor Site: Type of Lesion: LIVER: HEPATOCELLULAR CARCINOMA): active; positive | carcinogen call (Species: RAT, Strain/Sex: OSBORNE-MENDEL/FEMALE, Route: GAVAGE, 43, 76 MG/KG IN CORN OIL 5 D/WK FOR 78 WK (STUDY DURATION: 110 WK), 43, 76 MG/KG IN CORN OIL 5 D/WK FOR 78 WK (STUDY DURATION: 110 WK)): inactive; negative | carcinogen call (Species: RAT, Strain/Sex: OSBORNE-MENDEL/MALE, Route: GAVAGE, 62, 108 MG/KG IN CORN OIL 5 D/WK FOR 78 WK (STUDY DURATION: 110 WK), 62, 108 MG/KG IN CORN OIL 5 D/WK FOR 78 WK (STUDY DURATION: 110 WK), Tumor Site: Type of Lesion: LIVER: NEOPLASTIC NODULE, HEPATOCELLULAR CARCINOMA): equivocal

CN(N=O)C(CCCO)c1cccnc1 (stereo unspecified)
carcinogen call (Species: MOUSE, Strain/Sex: STRAIN-A/FEMALE, Route: INTRAPERITONEAL, 200 UMOL TOTAL DOSE ADMINISTERED IN SUBDOSES 3/WK FOR 7 WK (STUDY DURATION: 37 WK)): inactive; negative

[CH3][Hg][Cl]
carcinogen call (Species: MOUSE, Strain/Sex: B6C3F1/FEMALE, Route: ORAL, 0.4, 2, 10 PPM IN DIET FOR 104 WK (STUDY DURATION: 104 WK), 0.4, 2, 10 PPM IN DIET FOR 104 WK (STUDY DURATION: 104 WK)): inactive; negative | carcinogen call (Species: MOUSE, Strain/Sex: B6C3F1/MALE, Route: ORAL, 0.4, 2, 10 PPM IN DIET FOR 104 WK (STUDY DURATION: 104 WK), 0.4, 2, 10 PPM IN DIET FOR 104 WK (STUDY DURATION: 104 WK), Tumor Site: Type of Lesion: KIDNEY: CARCINOMA, ADENOMA): active; positive | carcinogen call (Species: MOUSE, Strain/Sex: ICR/FEMALE, Route: ORAL, 0.4, 2, 10 PPM IN DIET FOR 104 WK (STUDY DURATION: 104 WK), 0.4, 2, 10 PPM IN DIET FOR 104 WK (STUDY DURATION: 104 WK)): inactive; negative | carcinogen call (Species: MOUSE, Strain/Sex: ICR/FEMALE, Route: ORAL, 10 PPM IN BASAL DIET ADMINISTERED TO SPAYED MICE FOR 80 WK (STUDY DURATION: 80 WK)): inactive; negative | carcinogen call (Species: MOUSE, Strain/Sex: ICR/FEMALE, Route: ORAL, 10 PPM IN BASAL DIET FOR 80 WK (STUDY DURATION: 80 WK)): inactive; negative | carcinogen call (Species: MOUSE, Strain/Sex: ICR/FEMALE, Route: ORAL, 15 PPM IN DIET FOR 78 WK (STUDY DURATION: 78 WK)): inactive; negative | carcinogen call (Species: MOUSE, Strain/Sex: ICR/MALE, Route: ORAL, 0.4, 2, 10 PPM IN DIET FOR 104 WK (STUDY DURATION: 104 WK), 0.4, 2, 10 PPM IN DIET FOR 104 WK (STUDY DURATION: 104 WK), Tumor Site: Type of Lesion: KIDNEY: ADENOCARCINOMA): active; positive | carcinogen call (Species: MOUSE, Strain/Sex: ICR/MALE, Route: ORAL, 10 PPM IN BASAL DIET ADMINISTERED TO CASTRATED MICE FOR 80 WK (STUDY DURATION: 80 WK)): inactive; negative | carcinogen call (Species: MOUSE, Strain/Sex: ICR/MALE, Route: ORAL, 10 PPM IN BASAL DIET FOR 80 WK (STUDY DURATION: 80 WK), Tumor Site: Type of Lesion: KIDNEY: ADENOCARCINOMA): active; positive | carcinogen call (Species: MOUSE, Strain/Sex: ICR/MALE, Route: ORAL, 15 PPM IN DIET FOR 78 WK (STUDY DURATION: 78 WK), Tumor Site: Type of Lesion: KIDNEY: ADENOCARCINOMA, ADENOMA): active; positive | carcinogen call (Species: RAT, Strain/Sex: SPRAGUE-DAWLEY/FEMALE, Route: ORAL, 0.4, 2, 10 PPM IN DIET FOR 130 WK (STUDY DURATION: 130 WK), 0.4, 2, 10 PPM IN DIET FOR 130 WK (STUDY DURATION: 130 WK)): inactive; negative | carcinogen call (Species: RAT, Strain/Sex: SPRAGUE-DAWLEY/MALE, Route: ORAL, 0.4, 2, 10 PPM IN DIET FOR 130 WK (STUDY DURATION: 130 WK), 0.4, 2, 10 PPM IN DIET FOR 130 WK (STUDY DURATION: 130 WK)): inactive; negative

N=C1C=CC(=C(c2ccc(N)cc2)c2ccc(N)cc2)C=C1
carcinogen call (Species: MOUSE, Strain/Sex: B6C3F1/FEMALE, Route: ORAL, 500, 1000 PPM IN DIET FOR 103 WK (STUDY DURATION: 110-113 WK), 500, 1000 PPM IN DIET FOR 103 WK (STUDY DURATION: 110-113 WK), Tumor Site: Type of Lesion: LUNG: ALVEOLAR/BRONCHIOLAR ADENOMA, ALVEOLAR/BRONCHIOLAR ADENOMA OR CARCINOMA;LIVER: HEPATOCELLULAR ADENOMA, HEPATOCELLU): active; positive | carcinogen call (Species: MOUSE, Strain/Sex: B6C3F1/MALE, Route: ORAL, 500, 1000 PPM IN DIET FOR 103 WK (STUDY DURATION: 113-115 WK), 500, 1000 PPM IN DIET FOR 103 WK (STUDY DURATION: 113-115 WK), Tumor Site: Type of Lesion: LIVER: HEPATOCELLULAR CARCINOMA, HEPATOCELLULAR ADENOMA OR CARCINOMA): active; positive | carcinogen call (Species: RAT, Strain/Sex: F344/FEMALE, Route: ORAL, 500, 1000 PPM IN DIET FOR 103 WK (STUDY DURATION: 110-113 WK), 500, 1000 PPM IN DIET FOR 103 WK (STUDY DURATION: 110-113 WK), Tumor Site: Type of Lesion: INTEGUMENTARY SYSTEM (SUBCUTANEOUS TISSUE): FIBROMA, FIBROMA OR FIBROSARCOMA, FIBROMA OR SARCOMA OR FIBROSARCOMA, MAMMAR): active; positive | carcinogen call (Species: RAT, Strain/Sex: F344/MALE, Route: ORAL, 1000, 2000 PPM IN DIET FOR 103 WK (STUDY DURATION: 110-113 WK), 1000, 2000 PPM IN DIET FOR 103 WK (STUDY DURATION: 110-113 WK), Tumor Site: Type of Lesion: INTEGUMENTARY SYSTEM (SKIN): SQUAMOUS CELL CARCINOMA, SQUAMOUS CELL PAPILLOMA OR CARCINOMA, TRICHOEPITHELIOMA, SEBACEOUS): active; positive | carcinogen call (Species: RAT, Strain/Sex: SPRAGUE-DAWLEY/FEMALE, Route: GAVAGE, 300 MG/KG BW 2/WK FOR 18 WK WITH A 1 WK REST AFTER 12 WK THEN STARTING AT 19 WK 150 MG/KG BW 2/WK FOR DURATION OF STU): inactive; negative | carcinogen call (Species: RAT, Strain/Sex: SPRAGUE-DAWLEY/MALE, Route: GAVAGE, 300 MG/KG BW 2/WK FOR 18 WK WITH A 1 WK REST AFTER 12 WK THEN STARTING AT 19 WK 150 MG/KG BW 2/WK FOR DURATION OF STU): inactive; negative

Cc1ccc2cc3c(ccc4ccccc43)c3c2c1CC3OS(=O)(=O)O (stereo unspecified)
carcinogen call (Species: RAT, Strain/Sex: SPRAGUE-DAWLEY/FEMALE, Route: SUBCUTANEOUS, 0.2 UMOL IN 0.1 ML SESAME OIL: DMSO (9:1) 3/WK FOR 20 DOSES (STUDY DURATION: 52 WK), Tumor Site: Type of Lesion: INJECTION SITE: SARCOMA): active; positive

CCOc1ccc(NC(=O)CC(C)O)cc1 (stereo unspecified)
carcinogen call (Species: MOUSE, Strain/Sex: B6C3F1/FEMALE, Route: ORAL, 0.75, 1.5% IN BASAL DIET FOR 76 WK FOLLOWED BY BASAL DIET ONLY FOR 8 WK (STUDY DURATION: 84 WK), 0.75, 1.5% IN BASAL DIET FOR 76 WK FOLLOWED BY BASAL DIET ONLY FOR 8 WK (STUDY DURATION: 84 WK)): inactive; negative | carcinogen call (Species: MOUSE, Strain/Sex: B6C3F1/MALE, Route: ORAL, 0.75, 1.5% IN BASAL DIET FOR 76 WK FOLLOWED BY BASAL DIET ONLY FOR 8 WK (STUDY DURATION: 84 WK), 0.75, 1.5% IN BASAL DIET FOR 76 WK FOLLOWED BY BASAL DIET ONLY FOR 8 WK (STUDY DURATION: 84 WK), Tumor Site: Type of Lesion: KIDNEY: RENAL CELL ADENOMA, RENAL CELL CARCINOMA): active; positive
